The assay addresses T1, human FAAH (Homo sapiens, UniProt O00519).
T1 construct: host or cells: COS-7 cells, transient transfection; 13,000 g membrane fraction solubilised in 1% Triton X-100
T1 sequence (O00519 1-579): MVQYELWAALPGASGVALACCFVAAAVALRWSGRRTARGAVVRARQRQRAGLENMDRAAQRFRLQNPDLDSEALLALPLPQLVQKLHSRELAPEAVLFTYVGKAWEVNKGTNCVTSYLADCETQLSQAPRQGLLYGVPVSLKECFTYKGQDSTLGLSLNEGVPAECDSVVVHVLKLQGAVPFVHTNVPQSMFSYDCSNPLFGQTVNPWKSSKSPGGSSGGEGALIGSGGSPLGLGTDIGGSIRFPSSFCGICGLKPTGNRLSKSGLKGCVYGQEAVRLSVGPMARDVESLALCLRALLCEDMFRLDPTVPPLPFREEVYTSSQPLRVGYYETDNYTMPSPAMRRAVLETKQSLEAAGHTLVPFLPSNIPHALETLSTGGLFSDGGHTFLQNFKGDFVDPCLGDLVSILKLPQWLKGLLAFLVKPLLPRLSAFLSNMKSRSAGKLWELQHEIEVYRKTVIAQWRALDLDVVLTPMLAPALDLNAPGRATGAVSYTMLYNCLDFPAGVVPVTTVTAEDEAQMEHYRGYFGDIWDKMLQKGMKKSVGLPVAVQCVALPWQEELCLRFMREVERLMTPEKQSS
As to the kind of experiment: Inhibition of human FAAH (fluorescence assay, AMC arachidonoyl amide substrate). It counts as biochemical. Conditions: solubilized human FAAH from transfected COS-7 cells; 30 min preincubation; 20 μM AMC-arachidonoyl amide; 4 h at room temperature. The procedure:
Human FAAH Preparation: COS-7 cells were split the day before, 1:5 into 150 mm×25 mm cell culture dishes (Corning Inc., Cat. No. 430599). Transient transfection took place at 30-40% confluency according to FuGENE 6 Transfection Reagent (Roche, Cat. No. 11814 443 001).
Transfection Procedure: The FuGENE transfection 6 reagent (45 uL) was added to 1410 μL of media (DMEM, serum free without pen/strep) in a 15 mL conical tube and incubated at room temp for 5 minutes, followed by the addition of FAAH plasmid DNA (15 μg) (OriGene Cat. No. TC119221, Genbank Accession No. NM_001441.1, 0.67 ug/uL) and a further incubation of 15 minutes at room temperature. The resulting solution was added into one dish of 30-40% confluent COS-7 cells in a drop-wise manner. The COS-7 cell dish was subsequently incubated for 48 hours. The cells are then harvested.
Harvest procedure: Media was aspirated from the dishes and the cells rinsed with 10 mL PBS. The PBS was removed and 3 mL of PBS added to the dish. The dish was scraped to resuspend the cells, and the subsequent cell suspension collected into a 15 mL conical tube. The cells were pelleted by centrifugation at 1200 rpm for 5 minutes in a bench top centrifuge. PBS was removed and the cell pellet snap frozen in liquid nitrogen and stored at −80° C.
COS-7 cells—FAAH purification: • (1) Fractionation: Frozen cell pellets from transient transfections were thawed on ice and resuspended in 12.5 mM Hepes pH 8.0, 100 mM NaCl, 1 mM EDTA (10 mL/0.2 g cell pellet). The pellets were dounce homogenized and then sonicated to produce cell extract. The cell extract was subsequently centrifuged at 1000 g to remove cellular debris. The pellet was discarded and the supernatant centrifuged at 13,000 g for 20 minutes. The pellet contained membrane bound FAAH. The supernatant was discarded and the pellet resolubilized. • (2) Re-solubilization: The fraction of interest, (13,000 g, membrane fraction) was re-suspended in 2.3 mL re-suspension buffer (20 mM Hepes pH 7.8, 10% v/v Glycerol, 1 mM EDTA, 1% Triton X-100) and the sample incubated on ice for 1 hour and then centrifuged to remove any particulate matter. The supernatant containing solubilized human FAAH was aliquoted and snap frozen in liquid nitrogen and stored at 80° C. until use. • (3) Characterization: Protein Concentration determined by Bradford assay. • SDS gel and Western blot to confirm presence of FAAH • FAAH activity assay • Km determination—96-well assay • Linear dependence—96-well assay • Standard compound Ki determination—384-well assay
Human FAAH assay; Experimental Protocol: A 0.1 mg/mL Human FAAH solution was made up in FAAH reaction buffer, and 24 ul pipeted into a 384 well plate. To this was added 1 μL of a 3 fold serially diluted inhibitor from a DMSO stock solution. The FAAH solution and inhibitor were incubated for 30 minutes at room temperature. The FAAH reaction was initiated by the addition of 25 μL of 40 μM AMC Arachidonoyl Amide in FAAH reaction buffer, yielding a final reaction human FAAH preparation concentration of 0.05 mg/ml and AMC-Arachidonoyl substrate concentration of 20 μM, reaction volume 50 μL. The reaction was allowed to proceed for 4 hours at room temperature. The reaction was stopped by the addition of 25 μL 12 μM a-ketoheterocycle (Cayman Chemicals, catalogue #10435). The microtiter plate was read in the envision plate reader.
The raw fluorescence was plotted on the y axis and the inhibitor concentration on the x axis to give a dose response inhibition curve. The data was fitted to a single site competitive inhibition equation, fixing the Km for the human enzyme to 12 μM and 9 μM respectively.
On to `BrC1=NO[C@]2(CCc3cc(Oc4ccccc4)ccc32)C1` [III-63a], for which the Ki – broadly, a dissociation constant, usually derived from enzyme kinetics or from competition with a known ligand – was no more than 0.1 µM. In turn, `BrC1=NO[C@@]2(CCc3cc(Oc4ccccc4)ccc32)C1` [III-63b] displayed a Ki of no more than 0.1 µM. In the case of `FC(F)(F)Oc1ccc2c(c1)CC[C@@]21CC(Br)=NO1` [III-66a] it was no more than 0.1 µM; in that of `FC(F)(F)Oc1ccc2c(c1)CC[C@]21CC(Br)=NO1` [III-66b], no more than 0.1 µM.

`CSc1ccc(OC2=NO[C@]3(CCc4cc(OC(F)(F)F)ccc43)C2)cn1` [III-67a]: the Ki was no more than 0.1 µM. With `CSc1ccc(OC2=NO[C@@]3(CCc4cc(OC(F)(F)F)ccc43)C2)cn1` [III-67b] the figure was no more than 0.1 µM. In the case of `CS(=O)(=O)c1ccc(OC2=NO[C@]3(CCc4cc(OC(F)(F)F)ccc43)C2)cn1` [III-68a] it was no more than 0.1 µM; in that of `CS(=O)(=O)c1ccc(OC2=NO[C@@]3(CCc4cc(OC(F)(F)F)ccc43)C2)cn1` [III-68b], no more than 0.1 µM. In turn, `Cn1cc(-c2ccc(OC3=NO[C@]4(CCc5cc(OC(F)(F)F)ccc54)C3)cn2)cn1` [III-70a] displayed a Ki of no more than 0.1 µM. With `Cn1nccc1-c1ccc(OC2=NO[C@]3(CCc4cc(OC(F)(F)F)ccc43)C2)cn1` [III-71a] the figure was no more than 0.1 µM; with `Cn1nccc1-c1ccc(OC2=NO[C@@]3(CCc4cc(OC(F)(F)F)ccc43)C2)cn1` [III-71b], no more than 0.1 µM; with `FC(F)(F)Oc1ccc2c(c1)CC[C@@]21CC(Oc2cncc(-c3nnco3)c2)=NO1` [III-73a], no more than 0.1 µM.

`FC(F)(F)Oc1ccc2c(c1)CC[C@]21CC(Oc2cncc(-c3nnco3)c2)=NO1` [III-73b] gave an inhibitory constant (Ki) of no more than 0.1 µM. With `O=C(O)c1ccc(OC2=NO[C@@]3(CCc4cc(OC(F)(F)F)ccc43)C2)cn1` [III-74b] the figure was no more than 0.1 µM.

Source of the values: US8765735B2, “Isoxazolines as inhibitors of fatty acid amide hydrolase” (Infinity Pharmaceuticals, Inc., priority 2009, dated 2014).
